In patent US20190048016A1, “SUBSTITUTED BRIDGED UREA ANALOGS AS SIRTUIN MODULATORS” (GlaxoSmithKline Intellectual Property(No.2)Limited, priority 2014, published 2019):

Biological target: T1, SIRT1 (Homo sapiens, UniProt Q96EB6)
T1 sequence (Q96EB6 1-747): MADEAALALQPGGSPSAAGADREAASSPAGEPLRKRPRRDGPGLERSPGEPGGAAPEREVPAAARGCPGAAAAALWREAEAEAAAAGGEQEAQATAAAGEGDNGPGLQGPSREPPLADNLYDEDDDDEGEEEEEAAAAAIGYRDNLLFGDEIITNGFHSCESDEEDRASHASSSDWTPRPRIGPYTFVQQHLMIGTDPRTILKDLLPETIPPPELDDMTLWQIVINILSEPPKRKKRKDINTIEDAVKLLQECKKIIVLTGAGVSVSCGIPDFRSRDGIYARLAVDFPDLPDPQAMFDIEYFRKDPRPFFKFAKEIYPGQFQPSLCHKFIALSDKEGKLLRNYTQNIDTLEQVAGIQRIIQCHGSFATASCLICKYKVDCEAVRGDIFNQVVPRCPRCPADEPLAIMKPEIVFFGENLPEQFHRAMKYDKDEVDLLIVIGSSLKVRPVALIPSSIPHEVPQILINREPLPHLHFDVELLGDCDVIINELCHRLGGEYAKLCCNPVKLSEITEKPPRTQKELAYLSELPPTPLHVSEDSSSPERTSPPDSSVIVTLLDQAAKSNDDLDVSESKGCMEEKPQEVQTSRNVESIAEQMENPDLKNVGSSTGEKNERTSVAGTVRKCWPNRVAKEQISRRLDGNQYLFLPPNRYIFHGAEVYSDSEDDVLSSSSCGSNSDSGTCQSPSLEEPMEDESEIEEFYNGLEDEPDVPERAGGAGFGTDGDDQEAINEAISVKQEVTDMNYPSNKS
Assay: Trp mass spectrometry assay of SIRT1 activation (deacetylation of Ac-R-H-K-K(Ac)-W-NH2 peptide, OAADPR formation)
Assay type: biochemical
Conditions: Trp peptide 0.5 μM, 120 μM βNAD+, 10 nM SIRT1, 25 min, 25° C.; for Emax: 25 min, read-out: TRP MAX RESP (percent maximum fold activation relative to control = 100%)
Outline: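 10 nM His-tagged SIRT1 (E. coli expressed) with 0.5 μM Ac-RHKK(Ac)W-NH2 and 120 μM βNAD+, 25 min at 25° C, HEPES pH 7.5, […]; formic acid stop. OAADPR or deacetylated peptide measured by mass spectrometry; EC1.5 = concentration giving 150% activity versus DMSO control; maximum activation also reported.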

| SMILES | Emax | TRP Activity (EC1.5, concentration of compound required to increase SIRT1 activity by 50% over control) |
| --- | --- | --- |
| O=C(Nc1ccccn1)N1c2nc(-c3cccc(C(F)(F)F)c3)c(Cl)cc2N2CCC[C@H]1C2 [Example 63, (9S)-3-chloro-N-(pyridin-2-yl)-2-(3-(trifluoromethyl)phenyl)-8,9-dihydro-6H-5,9-methanopyrido[2,3-b][1,4]diazocine-10(7H)-carboxamide] | ≥ 150% | A (EC1.5<1 μM) |
| O=C(Nc1cccc(OC[C@@H](O)CO)n1)N1c2nc(-c3cccc(C(F)(F)F)c3)c(Cl)cc2N2CCC[C@H]1C2 [Example 64, (9S)-3-chloro-N-(6-((S)-2,3-dihydroxypropoxy)pyridin-2-yl)-2-(3-(trifluoromethyl)phenyl)-8,9-dihydro-6H-5,9-methanopyrido[2,3-b][1,4]diazocine-10(7H)-carboxamide] | ≥ 150% | A (EC1.5<1 μM) |
| O=C(Nc1cccc(OC[C@H](O)CO)n1)N1c2nc(-c3cccc(C(F)(F)F)c3)c(Cl)cc2N2CCC[C@H]1C2 [Example 65, (9S)-3-chloro-N-(6-((R)-2,3-dihydroxypropoxy)pyridin-2-yl)-2-(3-(trifluoromethyl)phenyl)-8,9-dihydro-6H-5,9-methanopyrido[2,3-b][1,4]diazocine-10(7H)-carboxamide] | ≥ 150% | A (EC1.5<1 μM) |
| Cc1cc(-c2nc3c(cc2Cl)N2CCC[C@@H](C2)N3C(=O)Nc2cccnc2)ccn1 [Example 66, (9S)-3-chloro-2-(2-methylpyridin-4-yl)-N-(pyridin-3-yl)-8,9-dihydro-6H-5,9-methanopyrido[2,3-b][1,4]diazocine-10(7H)-carboxamide] | ≥ 150% | – |
| Cc1cc(-c2nc3c(cc2C)N2CCC[C@@H](C2)N3C(=O)Nc2cccnc2)ccn1 [Example 68, (9S)-3-methyl-2-(2-methylpyridin-4-yl)-N-(pyridin-3-yl)-8,9-dihydro-6H-5,9-methanopyrido[2,3-b][1,4]diazocine-10(7H)-carboxamide] | ≥ 150% | A (EC1.5<1 μM) |
| O=C(Nc1cnc(OC[C@H](O)CO)nc1)N1c2nc(-c3cccc(C(F)(F)F)c3)c(Cl)cc2N2CCC[C@H]1C2 [Example 69, (9S)-3-chloro-N-(2-((R)-2,3-dihydroxypropoxy)pyrimidin-5-yl)-2-(3-(trifluoromethyl)phenyl)-8,9-dihydro-6H-5,9-methanopyrido[2,3-b][1,4]diazocine-10(7H)-carboxamide] | ≥ 150% | A (EC1.5<1 μM) |
| O=C(Nc1cc(OC[C@H](O)CO)ncn1)N1c2nc(-c3cccc(C(F)(F)F)c3)c(Cl)cc2N2CCC[C@H]1C2 [Example 70, (9S)-3-chloro-N-(6-((R)-2,3-dihydroxypropoxy)pyrimidin-4-yl)-2-(3-(trifluoromethyl)phenyl)-8,9-dihydro-6H-5,9-methanopyrido[2,3-b][1,4]diazocine-10(7H)-carboxamide] | ≥ 150% | B (EC1.5 1-25 μM) |
| O=C(NC1CC1)N1c2nc(-c3cccc(C(F)(F)F)c3)c(Cl)cc2N2CCC[C@H]1C2 [Example 71, (9S)-3-chloro-N-cyclopropyl-2-(3-(trifluoromethyl)phenyl)-8,9-dihydro-6H-5,9-methanopyrido[2,3-b][1,4]diazocine-10(7H)-carboxamide] | ≥ 150% | A (EC1.5<1 μM) |
| O=C(Nc1cnc(OC[C@@H](O)CO)nc1)N1c2nc(-c3cccc(C(F)(F)F)c3)c(Cl)cc2N2CCC[C@H]1C2 [Example 72, (9S)-3-chloro-N-(2-((S)-2,3-dihydroxypropoxy)pyrimidin-5-yl)-2-(3-(trifluoromethyl)phenyl)-8,9-dihydro-6H-5,9-methanopyrido[2,3-b][1,4]diazocine-10(7H)-carboxamide] | ≥ 150% | A (EC1.5<1 μM) |

Further lines, results first:

| Emax | TRP Activity (EC1.5, concentration of compound required to increase SIRT1 activity by 50% over control) | SMILES |
| --- | --- | --- |
| ≥ 150% | A (EC1.5<1 μM) | Cc1ncc(-c2ccnc(NC(=O)N3c4nc(C(=O)N[C@H](C)C(F)(F)F)ccc4N4CCC[C@H]3C4)c2)s1 [Example 44, (9S)-N10-(4-(2-methylthiazol-5-yl)pyridin-2-yl)-N2-((R)-1,1,1-trifluoropropan-2-yl)-8,9-dihydro-6H-5,9-methanopyrido[2,3-b][1,4]diazocine-2,10(7H)-dicarboxamide] |
| ≥ 150% | A (EC1.5<1 μM) | Cc1ccc2c(NC(=O)N3c4nc(C(=O)N[C@H](C)C(F)(F)F)cc(C)c4N4CCC[C@H]3C4)n[nH]c2n1 [Example 47, (9S)-4-methyl-N10-(6-methyl-1H-pyrazolo[3,4-b]pyridin-3-yl)-N2-((R)-1,1,1-trifluoropropan-2-yl)-8,9-dihydro-6H-5,9-methanopyrido[2,3-b][1,4]diazocine-2,10(7H)-dicarboxamide] |
| ≥ 150% | A (EC1.5<1 μM) | C[C@@H](NC(=O)c1ccc2c(n1)N(C(=O)Nc1cnc(OC[C@H](O)CO)cn1)[C@H]1CCCN2C1)C(F)(F)F [Example 49, (9S)-N10-(5-((R)-2,3-dihydroxypropoxy)pyrazin-2-yl)-N2-((R)-1,1,1-trifluoropropan-2-yl)-8,9-dihydro-6H-5,9-methanopyrido[2,3-b][1,4]diazocine-2,10(7H)-dicarboxamide] |
| ≥ 150% | A (EC1.5<1 μM) | Cc1ncc(-c2ccnc(NC(=O)N3c4nc(C(=O)N[C@H](C)C(F)(F)F)c(Cl)cc4N4CCC[C@H]3C4)c2)o1 [Example 51, (9S)-3-chloro-N10-(4-(2-methyloxazol-5-yl)pyridin-2-yl)-N2-((R)-1,1,1-trifluoropropan-2-yl)-8,9-dihydro-6H-5,9-methanopyrido[2,3-b][1,4]diazocine-2,10(7H)-dicarboxamide] |
| ≥ 150% | A (EC1.5<1 μM) | C[C@@H](NC(=O)c1ccc2c(n1)N(C(=O)Nc1ccc(OC[C@@H](O)CO)cn1)[C@H]1CCCN2C1)C(F)(F)F [Example 54, (9S)-N10-(5-((S)-2,3-dihydroxypropoxy)pyridin-2-yl)-N2-((R)-1,1,1-trifluoropropan-2-yl)-8,9-dihydro-6H-5,9-methanopyrido[2,3-b][1,4]diazocine-2,10(7H)-dicarboxamide] |
| ≥ 150% | – | C[C@@H](NC(=O)c1ccc2c(n1)N(C(=O)Nc1ccc(OC[C@H](O)CO)nn1)[C@H]1CCCN2C1)C(F)(F)F [Example 55, (9S)-N10-(6-((R)-2,3-dihydroxypropoxy)pyridazin-3-yl)-N2-((R)-1,1,1-trifluoropropan-2-yl)-8,9-dihydro-6H-5,9-methanopyrido[2,3-b][1,4]diazocine-2,10(7H)-dicarboxamide] |
| ≥ 150% | A (EC1.5<1 μM) | Cc1cc(C(=O)N[C@H](C)C(F)(F)F)nc2c1N1CCC[C@@H](C1)N2C(=O)Nc1ccc(OC[C@@H](O)CO)cn1 [Example 56, (9S)-N10-(5-((S)-2,3-dihydroxypropoxy)pyridin-2-yl)-4-methyl-N2-((R)-1,1,1-trifluoropropan-2-yl)-8,9-dihydro-6H-5,9-methanopyrido[2,3-b][1,4]diazocine-2,10(7H)-dicarboxamide] |
| ≥ 150% | A (EC1.5<1 μM) | Cc1cc(C(=O)N[C@H](C)C(F)(F)F)nc2c1N1CCC[C@@H](C1)N2C(=O)Nc1cc(OC[C@H](O)CO)ccn1 [Example 57, (9S)-N10-(4-((R)-2,3-dihydroxypropoxy)pyridin-2-yl)-4-methyl-N2-((R)-1,1,1-trifluoropropan-2-yl)-8,9-dihydro-6H-5,9-methanopyrido[2,3-b][1,4]diazocine-2,10(7H)-dicarboxamide] |
| ≥ 150% | A (EC1.5<1 μM) | O=C(Nc1cnc(OC[C@H](O)CO)cn1)N1c2nc(-c3cccc(C(F)(F)F)c3)c(Cl)cc2N2CCC[C@H]1C2 [Example 73, (9S)-3-chloro-N-(5-((R)-2,3-dihydroxypropoxy)pyrazin-2-yl)-2-(3-(trifluoromethyl)phenyl)-8,9-dihydro-6H-5,9-methanopyrido[2,3-b][1,4]diazocine-10(7H)-carboxamide] |
